Experimental data published in patent publication US20250195513A1, “DEGRADATION OF IRAK4 BY CONJUGATION OF IRAK4 INHIBITORS WITH E3 LIGASE LIGAND AND METHODS OF USE” (BeiGene, Ltd., priority 2022, published 2025).

Tests used:
IRAK4 [1] = target: T1, IRAK4 (Homo sapiens, UniProt Q9NWZ3); assay: IRAK4 Degradation Assay with Human Serum (Karpas299, HTRF/TR-FRET); type: cell-based; details: Karpas-299 in human serum, 24 hrs treatment; for DC50: read-out: IRAK4 degradtion with human serum assay DC50; for Dmax: read-out: IRAK4 degradtion with human serum assay Dmax (%)
T1 construct: endogenous in cells; host or cells: Karpas299
T1 sequence (Q9NWZ3 1-460): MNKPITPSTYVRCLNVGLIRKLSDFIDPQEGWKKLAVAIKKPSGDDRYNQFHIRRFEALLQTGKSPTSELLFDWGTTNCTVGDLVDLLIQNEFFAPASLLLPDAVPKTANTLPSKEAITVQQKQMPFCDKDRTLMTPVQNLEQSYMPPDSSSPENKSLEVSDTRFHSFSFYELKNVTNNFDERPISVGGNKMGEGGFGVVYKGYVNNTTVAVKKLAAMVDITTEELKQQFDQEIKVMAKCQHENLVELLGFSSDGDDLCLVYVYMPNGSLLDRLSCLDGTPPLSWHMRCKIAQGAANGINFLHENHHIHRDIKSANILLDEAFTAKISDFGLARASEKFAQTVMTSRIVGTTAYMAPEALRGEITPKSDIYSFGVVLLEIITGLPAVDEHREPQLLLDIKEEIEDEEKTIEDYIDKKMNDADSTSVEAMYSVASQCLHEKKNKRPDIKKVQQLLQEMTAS
How it was run: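 Karpas299 cells in human AB serum (0.2 million/well) treated with serial compound dilutions for 24 h. After lysis, IRAK4 quantified by HTRF (overnight antibody incubation at room temperature, 665/620 nm read). Degradation percentage fitted to four-parameter curve to give DC50.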

IRAK4 [2] = target: T1, IRAK4; assay: IRAK4 Degradation Assay (Karpas299, HTRF/TR-FRET); type: cell-based; details: Karpas-299 cells
How it was run: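 Karpas299 cells at 0.2 million per well were exposed to serially diluted compounds for 24 h or 5 h, then lysed. IRAK4 remaining in lysates was quantified by HTRF (665/620 nm) after overnight antibody incubation at room temperature. Percent degradation was fitted to a four-parameter curve to give IC50 (DC50).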

[3] = 24 h treatment, maximum percentage of degradation, read-out: IRAK4 in Karpas-299 (24 h) Dmax (%)
[4] = 24 h treatment, read-out: IRAK4 in Karpas-299 (24 h) DC50
[5] = 5 h treatment, maximum percentage of degradation, read-out: IRAK4 in Karpas-299 (5 h) Dmax (%)
[6] = 5 h treatment, read-out: IRAK4 in Karpas-299 (5 h) DC50

Question: For C[C@H]1CN(CCc2cc(F)c([C@H]3CCC(=O)NC3=O)c(F)c2)CCN1[C@H]1CC[C@H](n2cc3cc(NC(=O)c4ccc5cc(C#N)cnn45)c(C(C)(C)O)cc3n2)CC1 [Example 305, 3-cyano-N-(2-((1S,4r)-4-((S)-4-(4-((R)-2,6-dioxopiperidin-3-yl)-3,5-difluorophenethyl)-2-methylpiperazin-1-yl)cyclohexyl)-6-(2-hydroxypropan-2-yl)-2H-indazol-5-yl)pyrrolo[1,2-b]pyridazine-7-carboxamide], which DC50 (IRAK4 [1]) is on record?
Answer: 5.1 nM

Question: And the Dmax (IRAK4 [1])?
Answer: 99%

Question: And the Dmax (IRAK4 [2]; [3])?
Answer: 96%

Question: What about the DC50 (IRAK4 [2]; [4]) of the same compound?
Answer: 1.7 nM

Question: What does the source list for C[C@@H]1CN(C(=O)C2CN(c3cc(F)c(N4CCC(=O)NC4=O)c(F)c3)C2)CCN1[C@H]1CC[C@H](n2cc3cc(NC(=O)c4ccc5cc(C#N)cnn45)c(C(C)(C)O)cc3n2)CC1 [Example 303, 3-cyano-N-(2-((1R,4r)-4-((R)-4-(1-(4-(2,4-dioxotetrahydropyrimidin-1(2H)-yl)-3,5-difluorophenyl)azetidine-3-carbonyl)-2-methylpiperazin-1-yl)cyclohexyl)-6-(2-hydroxypropan-2-yl)-2H-indazol-5-yl)pyrrolo[1,2-b]pyridazine-7-carboxamide]?
Answer: DC50 (IRAK4 [1]): 16 nM; Dmax (IRAK4 [1]): 101%; Dmax (IRAK4 [2]; [3]): 101%; DC50 (IRAK4 [2]; [4]): 0.4 nM

Question: How did the DC50 (IRAK4 [1]) turn out when C[C@@H]1CN([C@H]2C[C@@H](c3cc(F)c([C@H]4CCC(=O)NC4=O)c(F)c3)C2)CCN1[C@H]1CC[C@H](n2cc3cc(NC(=O)c4ccc5cc(C#N)cnn45)c(C(C)(C)O)cc3n2)CC1 [Example 365, 3-cyano-N-(2-((1R,4r)-4-((R)-4-((1S,3S)-3-(4-((R)-2,6-dioxopipendin-3-yl)-3,5-difluorophenyl)cyclobutyl)-2-methylpiperazin-1-yl)cyclohexyl)-6-(2-hydroxypropan-2-yl)-2H-indazol-5-yl)pyrrolo[1,2-b]pyridazine-7-carboxamide] was run?
Answer: 7.7 nM

Question: And the Dmax (IRAK4 [1])?
Answer: 93%

Question: And the Dmax (IRAK4 [2]; [3])?
Answer: 93%

Question: What about the DC50 (IRAK4 [2]; [4]) of the same compound?
Answer: 1.1 nM

Question: What does the source list for CC(C)(O)c1cc2nn(C3CCN(C4CCN(C(=O)[C@@H]5CCN(c6cc(F)c([C@H]7CCC(=O)NC7=O)c(F)c6)C5)CC4)CC3)cc2cc1NC(=O)c1ccc2cc(C#N)cnn12 [Example 347, 3-cyano-N-(2-(1′-((R)-1-(4-((R)-2,6-dioxopiperidin-3-yl)-3,5-difluorophenyl)pyrrolidine-3-carbonyl)-[1,4′-bipiperidin]-4-yl)-6-(2-hydroxypropan-2-yl)-2H-indazol-5-yl)pyrrolo[1,2-b]pyridazine-7-carboxamide]?
Answer: DC50 (IRAK4 [1]): 25 nM; Dmax (IRAK4 [1]): 103%; Dmax (IRAK4 [2]; [5]): 93%; DC50 (IRAK4 [2]; [6]): 2.2 nM; Dmax (IRAK4 [2]; [3]): 96%; DC50 (IRAK4 [2]; [4]): 1.3 nM

Question: Which results are given for Cc1cc(C2CCC(=O)NC2=O)c(F)cc1[C@H]1C[C@@H](N2CCN([C@H]3CC[C@H](n4cc5cc(NC(=O)c6ccc7cc(C#N)cnn67)c(C(C)(C)O)cc5n4)CC3)CC2)C1 (stereo partly drawn) [Example 296, 3-cyano-N-(2-((1R,4r)-4-(4-((1s,3S)-3-(4-(2,6-dioxopiperidin-3-yl)-5-fluoro-2-methylphenyl)cyclobutyl)piperazin-1-yl)cyclohexyl)-6-(2-hydroxypropan-2-yl)-2H-indazol-5-yl)pyrrolo[1,2-b]pyridazine-7-carboxamide]?
Answer: DC50 (IRAK4 [1]): 18 nM; Dmax (IRAK4 [1]): 100%; Dmax (IRAK4 [2]; [5]): 91%; DC50 (IRAK4 [2]; [6]): 5.4 nM; Dmax (IRAK4 [2]; [3]): 97%; DC50 (IRAK4 [2]; [4]): 1.8 nM

Question: What does the source list for CC(C)(O)c1cc2nn([C@H]3CC[C@H](N4CCN(CC5CN(c6cc(F)c(N7CCC(=O)NC7=O)c(F)c6)C5)CC4)CC3)cc2cc1NC(=O)c1ccc2cc(C#N)cnn12 [Example 108, 3-cyano-N-(2-((1r,4r)-4-(4-((1-(4-(2,4-dioxotetrahydropyrimidin-1(2H)-yl)-3,5-difluorophenyl)azetidin-3-yl)methyl)piperazin-1-yl)cyclohexyl)-6-(2-hydroxypropan-2-yl)-2H-indazol-5-yl)pyrrolo[1,2-b]pyridazine-7-carboxamide]?
Answer: DC50 (IRAK4 [1]): 28 nM; Dmax (IRAK4 [1]): 94%; Dmax (IRAK4 [2]; [3]): 97%; DC50 (IRAK4 [2]; [4]): 3.9 nM

Question: What does the source list for CC(C)(O)c1cc2nn(C3CCN(C4CCN(C(=O)C5CN(c6cc(F)c([C@H]7CCC(=O)NC7=O)c(F)c6)C5)CC4)CC3)cc2cc1NC(=O)c1ccc2cc(C#N)cnn12 [Example 346, (R)-3-cyano-N-(2-(1′-(1-(4-(2,6-dioxopiperidin-3-yl)-3,5-difluorophenyl)azetidine-3-carbonyl)-[1,4′-bipiperidin]-4-yl)-6-(2-hydroxypropan-2-yl)-2H-indazol-5-yl)pyrrolo[1,2-b]pyridazine-7-carboxamide]?
Answer: DC50 (IRAK4 [1]): 5.5 nM; Dmax (IRAK4 [1]): 99%; Dmax (IRAK4 [2]; [5]): 93%; DC50 (IRAK4 [2]; [6]): 1.6 nM; Dmax (IRAK4 [2]; [3]): 97%; DC50 (IRAK4 [2]; [4]): 1.4 nM

Question: With CC(C)(O)c1cc2nn([C@H]3CC[C@H](N4CCN(CC5CN(c6cc(F)c([C@H]7CCC(=O)NC7=O)c(F)c6)C5)CC4)CC3)cc2cc1NC(=O)c1coc2cccnc12 [Example 403, N-(2-((1r,4r)-4-(4-((1-(4-((R)-2,6-dioxopiperidin-3-yl)-3,5-difluorophenyl)azetidin-3-yl)methyl)piperazin-1-yl)cyclohexyl)-6-(2-hydroxypropan-2-yl)-2H-indazol-5-yl)furo[3,2-b]pyridine-3-carboxamide] as the compound, how does the DC50 (IRAK4 [1]) read?
Answer: 3.5 nM

Question: And the Dmax (IRAK4 [1])?
Answer: 99%

Question: What about the Dmax (IRAK4 [2]; [3]) of the same compound?
Answer: 96%

Question: And the DC50 (IRAK4 [2]; [4])?
Answer: 0.7 nM

Question: What does the source list for CC(C)(O)c1cc2nn([C@H]3CC[C@H](N4CCN(C(=O)C5CCN(c6ccc7c(c6)C(=O)N(C6CCC(=O)NC6=O)C7=O)CC5)CC4)CC3)cc2cc1NC(=O)c1ccc2cc(C#N)cnn12 (stereo partly drawn) [Example 429, 3-cyano-N-(2-((1r,4r)-4-(4-(1-(2-(2,6-dioxopiperidin-3-yl)-1,3-dioxoisoindolin-5-yl)piperidine-4-carbonyl)piperazin-1-yl)cyclohexyl)-6-(2-hydroxypropan-2-yl)-2H-indazol-5-yl)pyrrolo[1,2-b]pyridazine-7-carboxamide]?
Answer: DC50 (IRAK4 [1]): 32 nM; Dmax (IRAK4 [1]): 94%; Dmax (IRAK4 [2]; [3]): 97%; DC50 (IRAK4 [2]; [4]): 1 nM

Question: Which DC50 (IRAK4 [1]) does the source give for Cc1nc(C2CCC(=O)NC2=O)ccc1N1CCC(N2CCC3(CCC(n4cc5cc(NC(=O)c6ccc7cc(C#N)cnn67)c(C(C)(C)O)cc5n4)CC3)CC2)CC1 (stereo not drawn) [Example 427, 3-cyano-N-(2-(3-(1-(6-(2,6-dioxopiperidin-3-yl)-2-methylpyridin-3-yl)piperidin-4-yl)-3-azaspiro[5.5]undecan-9-yl)-6-(2-hydroxypropan-2-yl)-2H-indazol-5-yl)pyrrolo[1,2-b]pyridazine-7-carboxamide] here?
Answer: 8.4 nM

Question: And the Dmax (IRAK4 [1])?
Answer: 94%

Question: And the Dmax (IRAK4 [2]; [3])?
Answer: 96%

Question: What about the DC50 (IRAK4 [2]; [4]) of the same compound?
Answer: 2.9 nM

Question: With COC[C@@H]1CN([C@H]2CC[C@H](n3cc4cc(NC(=O)c5ccc6cc(C#N)cnn56)c(C(C)(C)O)cc4n3)CC2)CCN1C1CCN(c2ccc(C3CCC(=O)NC3=O)nc2C)CC1 (stereo partly drawn) [Example 418, 3-cyano-N-(2-((1S,4r)-4-((3S)-4-(1-(6-(2,6-dioxopiperidin-3-yl)-2-methylpyridin-3-yl)piperidin-4-yl)-3-(methoxymethyl)piperazin-1-yl)cyclohexyl)-6-(2-hydroxypropan-2-yl)-2H-indazol-5-yl)pyrrolo[1,2-b]pyridazine-7-carboxamide] as the compound, how does the DC50 (IRAK4 [1]) read?
Answer: 6.1 nM

Question: What about the Dmax (IRAK4 [1]) of the same compound?
Answer: 100%

Question: What about the Dmax (IRAK4 [2]; [3]) of the same compound?
Answer: 94%

Question: And the DC50 (IRAK4 [2]; [4])?
Answer: 1.8 nM

Question: How did the DC50 (IRAK4 [1]) turn out when CC(C)(O)c1cc2nn([C@H]3CC[C@H](N4CCN(C(=O)C5CN(c6ccc(C7CCC(=O)NC7=O)nc6)C5)CC4)CC3)cc2cc1NC(=O)c1ccc2cc(C#N)cnn12 (stereo partly drawn) [Example 255, 3-cyano-N-(2-((1r,4r)-4-(4-(1-(6-(2,6-dioxopiperidin-3-yl)pyridin-3-yl)azetidine-3-carbonyl)piperazin-1-yl)cyclohexyl)-6-(2-hydroxypropan-2-yl)-2H-indazol-5-yl)pyrrolo[1,2-b]pyridazine-7-carboxamide] was run?
Answer: 7.8 nM

Question: What about the Dmax (IRAK4 [1]) of the same compound?
Answer: 96%

Question: And the Dmax (IRAK4 [2]; [5])?
Answer: 96%

Question: And the DC50 (IRAK4 [2]; [6])?
Answer: 2.7 nM

Question: What about the Dmax (IRAK4 [2]; [3]) of the same compound?
Answer: 97%

Question: And the DC50 (IRAK4 [2]; [4])?
Answer: 1.2 nM

Question: For CC(C)(O)c1cc2nn([C@H]3C[C@H](N4CCN(C(=O)[C@@H]5CCN(c6cc(F)c([C@H]7CCC(=O)NC7=O)c(F)c6)C5)CC4)C3)cc2cc1NC(=O)c1ccc2cc(C#N)cnn12 [Example 329, 3-cyano-N-(2-((1R,3r)-3-(4-((R)-1-(4-((R)-2,6-dioxopiperidin-3-yl)-3,5-difluorophenyl)pyrrolidine-3-carbonyl)piperazin-1-yl)cyclobutyl)-6-(2-hydroxypropan-2-yl)-2H-indazol-5-yl)pyrrolo[1,2-b]pyridazine-7-carboxamide], which “IRAK4 degradtion with human serum assay Dmax (%)” value (IRAK4 [1]) is on record?
Answer: 98%

Question: What about the DC50 (IRAK4 [1]) of the same compound?
Answer: 19 nM

Question: What about the “IRAK4 in Karpas-299 (24 h) Dmax (%)” value (IRAK4 [2]; 24 h treatment, maximum percentage of degradation) of the same compound?
Answer: 96%

Question: And the DC50 (IRAK4 [2]; [4])?
Answer: 0.8 nM
